According to PubChem BioAssay (NCI):
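Step 1: Grow cells in 96-well plates. Step 2: Expose to compound for 48 hours at 5 concentrations. Step 3: Interpolate endpoints linearly; if unreached, use highest concentration. TGI: concentration producing complete growth inhibition.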

What was measured:
Assay in all cases: growth of human tumour cells (NCI), 48 h
RXF-631 renal = tested on: RXF-631 renal
NCI-H226 lung = tested on: NCI-H226 lung
NCI-H522 lung = tested on: NCI-H522 lung
786-0 renal = tested on: 786-0 renal
K-562 leukemia = tested on: K-562 leukemia
HOP-62 NSCLC = tested on: HOP-62 NSCLC
UO-31 renal = tested on: UO-31 renal
SNB-19 CNS = tested on: SNB-19 CNS
SN12C renal = tested on: SN12C renal
UACC-257 melanoma = tested on: UACC-257 melanoma
ACHN renal = tested on: ACHN renal
NCI-H23 lung = tested on: NCI-H23 lung
U251 CNS = tested on: U251 CNS
HCT-116 colon = tested on: HCT-116 colon
MOLT-4 leukemia = tested on: MOLT-4 leukemia
KM12 colon = tested on: KM12 colon
RPMI-8226 leukemia = tested on: RPMI-8226 leukemia
SW-620 colon = tested on: SW-620 colon
SF-268 CNS = tested on: SF-268 CNS
HCC-2998 colon = tested on: HCC-2998 colon
OVCAR-8 ovarian = tested on: OVCAR-8 ovarian
SK-MEL-28 melanoma = tested on: SK-MEL-28 melanoma
SK-OV-3 ovarian = tested on: SK-OV-3 ovarian
SF-539 CNS = tested on: SF-539 CNS
A549 NSCLC = tested on: A549 NSCLC
HL-60(TB) leukemia = tested on: HL-60(TB) leukemia
LOX IMVI melanoma = tested on: LOX IMVI melanoma
RXF 393 renal = tested on: RXF 393 renal
SK-MEL-2 melanoma = tested on: SK-MEL-2 melanoma
M19-MEL melanoma = tested on: M19-MEL melanoma
HCT-15 colon = tested on: HCT-15 colon
COLO 205 colon = tested on: COLO 205 colon
HOP-18 NSCLC = tested on: HOP-18 NSCLC
EKVX NSCLC = tested on: EKVX NSCLC
HOP-92 NSCLC = tested on: HOP-92 NSCLC
TK-10 renal = tested on: TK-10 renal
NCI-H460 lung = tested on: NCI-H460 lung
UACC-62 melanoma = tested on: UACC-62 melanoma
OVCAR-3 ovarian = tested on: OVCAR-3 ovarian
CCRF-CEM leukemia = tested on: CCRF-CEM leukemia
OVCAR-5 ovarian = tested on: OVCAR-5 ovarian
M14 melanoma = tested on: M14 melanoma
SNB-78 CNS = tested on: SNB-78 CNS
MALME-3M melanoma = tested on: MALME-3M melanoma
A498 renal = tested on: A498 renal
SF-295 CNS = tested on: SF-295 CNS
IGROV1 ovarian = tested on: IGROV1 ovarian
DMS 114 small cell lung = tested on: DMS 114 small cell lung
OVCAR-4 ovarian = tested on: OVCAR-4 ovarian
KM20L2 colon = tested on: KM20L2 colon
LXFL 529 NSCLC = tested on: LXFL 529 NSCLC
SNB-75 CNS = tested on: SNB-75 CNS
DLD-1 colon = tested on: DLD-1 colon
HT29 colon = tested on: HT29 colon

O=C(OC1CC(n2cc(F)c(=O)[nH]c2=O)OC1CSC(=O)c1ccccc1)c1ccccc1 (centres undefined)
TGI (RXF-631 renal): 40.3 µM
TGI (NCI-H226 lung): 75.9 µM
TGI (NCI-H522 lung): 87 µM
TGI (786-0 renal): > 100 µM
TGI (K-562 leukemia): > 100 µM
TGI (HOP-62 NSCLC): > 100 µM
TGI (UO-31 renal): > 100 µM
TGI (SNB-19 CNS): > 100 µM
TGI (SN12C renal): > 100 µM
TGI (UACC-257 melanoma): 87.6 µM
TGI (ACHN renal): > 100 µM
TGI (NCI-H23 lung): > 100 µM
TGI (U251 CNS): 49.8 µM
TGI (HCT-116 colon): > 100 µM
TGI (MOLT-4 leukemia): 81.1 µM
TGI (KM12 colon): 91.2 µM
TGI (RPMI-8226 leukemia): 57.4 µM
TGI (SW-620 colon): > 100 µM
TGI (SF-268 CNS): 68.8 µM
TGI (HCC-2998 colon): 75.2 µM
TGI (OVCAR-8 ovarian): > 100 µM
TGI (SK-MEL-28 melanoma): > 100 µM
TGI (SK-OV-3 ovarian): > 100 µM
TGI (SF-539 CNS): > 100 µM
TGI (A549 NSCLC): 92.4 µM
TGI (HL-60(TB) leukemia): 53.3 µM
TGI (LOX IMVI melanoma): > 100 µM
TGI (RXF 393 renal): 81.1 µM
TGI (SK-MEL-2 melanoma): > 100 µM
TGI (M19-MEL melanoma): 67 µM
TGI (HCT-15 colon): > 100 µM
TGI (COLO 205 colon): 88.7 µM
TGI (HOP-18 NSCLC): 97.4 µM
TGI (EKVX NSCLC): 90.5 µM
TGI (HOP-92 NSCLC): 56 µM
TGI (TK-10 renal): > 100 µM
TGI (NCI-H460 lung): > 100 µM
TGI (UACC-62 melanoma): > 100 µM
TGI (OVCAR-3 ovarian): 53.3 µM
TGI (CCRF-CEM leukemia): > 100 µM
TGI (OVCAR-5 ovarian): > 100 µM
TGI (M14 melanoma): > 100 µM
TGI (SNB-78 CNS): > 100 µM
TGI (MALME-3M melanoma): 84.5 µM
TGI (A498 renal): > 100 µM
TGI (SF-295 CNS): > 100 µM
TGI (IGROV1 ovarian): > 100 µM
TGI (DMS 114 small cell lung): > 100 µM
TGI (OVCAR-4 ovarian): > 100 µM
TGI (KM20L2 colon): 33.9 µM
TGI (LXFL 529 NSCLC): > 100 µM
TGI (SNB-75 CNS): 65.6 µM
TGI (DLD-1 colon): > 100 µM
TGI (HT29 colon): 34.4 µM
